From ChEMBL document CHEMBL3102750 (J Med Chem, 2013)
Numbering of substitutions follows the chain as printed.

Assays:
Format in all cases: functional, cell-based
[1] = biological target: Muscarinic acetylcholine receptor M3 (Rattus norvegicus, UniProt P08483); experiment: Negative allosteric modulation of rat muscarinic acetylcholine receptor M3 expressed in CHO cells assessed as inhibition of acetylcholine-induced calcium mobilization incubated for 150 secs prior to acetylcholine induction by Fluo-4 AM staining-based fluorescence assay
Chain of Muscarinic acetylcholine receptor M3 (Rattus norvegicus, UniProt P08483) (P08483 whole entry): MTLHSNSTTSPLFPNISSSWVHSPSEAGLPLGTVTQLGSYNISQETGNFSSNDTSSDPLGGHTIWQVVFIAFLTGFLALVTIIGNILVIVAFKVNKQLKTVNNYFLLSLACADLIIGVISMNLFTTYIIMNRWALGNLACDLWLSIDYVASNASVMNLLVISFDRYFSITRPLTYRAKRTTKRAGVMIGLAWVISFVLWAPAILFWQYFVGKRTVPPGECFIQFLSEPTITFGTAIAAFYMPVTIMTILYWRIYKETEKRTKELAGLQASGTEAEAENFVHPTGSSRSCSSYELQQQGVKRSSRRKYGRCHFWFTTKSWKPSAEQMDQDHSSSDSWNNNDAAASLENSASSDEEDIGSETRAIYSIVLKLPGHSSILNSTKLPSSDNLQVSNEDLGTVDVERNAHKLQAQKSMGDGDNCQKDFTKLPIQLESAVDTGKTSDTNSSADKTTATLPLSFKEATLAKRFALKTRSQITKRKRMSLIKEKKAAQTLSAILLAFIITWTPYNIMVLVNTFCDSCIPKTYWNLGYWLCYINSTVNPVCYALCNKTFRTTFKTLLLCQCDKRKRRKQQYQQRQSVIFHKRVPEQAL

[2] = biological target: T1, Muscarinic acetylcholine receptor M4 (Rattus norvegicus, UniProt P08485); experiment: Negative allosteric modulation of rat muscarinic acetylcholine receptor M4 expressed in CHO cells assessed as inhibition of acetylcholine-induced calcium mobilization incubated for 150 secs prior to acetylcholine induction by Fluo-4 AM staining-based fluorescence assay
T1 sequence (P08485 whole entry): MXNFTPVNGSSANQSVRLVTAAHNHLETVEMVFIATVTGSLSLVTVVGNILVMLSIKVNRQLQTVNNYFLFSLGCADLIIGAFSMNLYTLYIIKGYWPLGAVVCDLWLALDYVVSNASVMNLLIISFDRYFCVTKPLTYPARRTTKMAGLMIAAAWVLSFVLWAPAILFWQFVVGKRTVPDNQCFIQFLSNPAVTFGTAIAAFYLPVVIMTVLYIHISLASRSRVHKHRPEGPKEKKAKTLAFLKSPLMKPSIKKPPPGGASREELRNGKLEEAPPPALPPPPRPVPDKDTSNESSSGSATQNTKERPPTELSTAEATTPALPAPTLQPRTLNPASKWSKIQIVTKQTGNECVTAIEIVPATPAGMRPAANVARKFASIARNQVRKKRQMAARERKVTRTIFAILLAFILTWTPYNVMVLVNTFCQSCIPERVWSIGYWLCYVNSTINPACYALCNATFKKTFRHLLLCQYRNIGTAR

[3] = biological target: T2, Muscarinic acetylcholine receptor M4 (Homo sapiens, UniProt P08173); experiment: Negative allosteric modulation of human muscarinic acetylcholine receptor M4 expressed in CHO cells assessed as inhibition of acetylcholine-induced calcium mobilization incubated for 150 secs prior to acetylcholine induction by Fluo-4 AM staining-based fluorescence assay
T2 sequence (P08173 whole entry): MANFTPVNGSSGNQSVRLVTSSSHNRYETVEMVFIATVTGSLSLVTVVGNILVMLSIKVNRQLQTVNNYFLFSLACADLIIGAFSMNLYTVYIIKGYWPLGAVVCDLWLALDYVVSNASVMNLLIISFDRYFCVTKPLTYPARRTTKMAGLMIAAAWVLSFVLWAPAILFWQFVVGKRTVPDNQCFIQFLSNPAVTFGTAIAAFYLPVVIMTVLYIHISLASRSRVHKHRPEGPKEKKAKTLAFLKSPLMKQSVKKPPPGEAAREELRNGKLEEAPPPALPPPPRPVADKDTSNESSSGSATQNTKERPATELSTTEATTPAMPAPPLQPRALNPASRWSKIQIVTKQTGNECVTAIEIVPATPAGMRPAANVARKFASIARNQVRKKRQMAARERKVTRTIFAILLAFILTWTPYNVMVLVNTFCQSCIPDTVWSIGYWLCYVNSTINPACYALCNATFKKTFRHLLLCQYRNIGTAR

[4] = biological target: T3, Muscarinic acetylcholine receptor M1 (Homo sapiens, UniProt P11229); experiment: Negative allosteric modulation of human muscarinic acetylcholine receptor M1 expressed in CHO cells assessed as inhibition of acetylcholine-induced calcium mobilization incubated for 150 secs prior to acetylcholine induction by Fluo-4 AM staining-based fluorescence assay
T3 sequence (P11229 whole entry): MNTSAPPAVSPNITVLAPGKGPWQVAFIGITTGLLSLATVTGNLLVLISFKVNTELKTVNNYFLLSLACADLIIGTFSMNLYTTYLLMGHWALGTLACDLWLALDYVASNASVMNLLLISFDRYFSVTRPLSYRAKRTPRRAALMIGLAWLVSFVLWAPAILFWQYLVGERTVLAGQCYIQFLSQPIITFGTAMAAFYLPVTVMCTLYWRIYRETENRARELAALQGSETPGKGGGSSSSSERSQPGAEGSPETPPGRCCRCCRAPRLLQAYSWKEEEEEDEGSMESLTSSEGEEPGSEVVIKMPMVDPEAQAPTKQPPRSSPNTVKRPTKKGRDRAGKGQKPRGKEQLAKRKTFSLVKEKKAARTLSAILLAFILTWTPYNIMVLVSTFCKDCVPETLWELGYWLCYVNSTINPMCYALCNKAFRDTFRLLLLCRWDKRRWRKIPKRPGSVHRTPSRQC

[5] = biological target: T4, Muscarinic acetylcholine receptor M2 (Rattus norvegicus, UniProt P10980); experiment: Negative allosteric modulation of rat muscarinic acetylcholine receptor M2 expressed in CHO cells assessed as inhibition of acetylcholine-induced calcium mobilization incubated for 150 secs prior to acetylcholine induction by Fluo-4 AM staining-based fluorescence assay
T4 sequence (P10980 whole entry): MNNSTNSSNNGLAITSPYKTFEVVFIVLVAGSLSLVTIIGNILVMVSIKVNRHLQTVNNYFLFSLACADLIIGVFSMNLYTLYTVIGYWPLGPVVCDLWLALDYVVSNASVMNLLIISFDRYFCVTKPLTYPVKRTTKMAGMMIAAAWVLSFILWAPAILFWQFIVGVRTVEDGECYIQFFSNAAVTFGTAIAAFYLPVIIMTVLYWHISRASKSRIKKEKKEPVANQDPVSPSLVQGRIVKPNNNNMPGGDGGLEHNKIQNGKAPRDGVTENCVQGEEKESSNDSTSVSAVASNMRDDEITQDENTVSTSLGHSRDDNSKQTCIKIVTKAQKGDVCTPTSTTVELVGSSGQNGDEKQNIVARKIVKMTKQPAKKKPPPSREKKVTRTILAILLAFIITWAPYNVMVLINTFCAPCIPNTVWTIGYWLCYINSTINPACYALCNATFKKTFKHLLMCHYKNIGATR

[6] = biological target: T5, Muscarinic acetylcholine receptor M1 (Rattus norvegicus, UniProt P08482); experiment: Negative allosteric modulation of rat muscarinic acetylcholine receptor M1 expressed in CHO cells assessed as inhibition of acetylcholine-induced calcium mobilization incubated for 150 secs prior to acetylcholine induction by Fluo-4 AM staining-based fluorescence assay
T5 sequence (P08482 whole entry): T3 sequence (P11229 whole entry) with A5V, T254S, P309S, R320K, A337G, I413V

[7] = biological target: Muscarinic acetylcholine receptor M3 (Homo sapiens, UniProt P20309); experiment: Negative allosteric modulation of human muscarinic acetylcholine receptor M3 expressed in CHO cells assessed as inhibition of acetylcholine-induced calcium mobilization incubated for 150 secs prior to acetylcholine induction by Fluo-4 AM staining-based fluorescence assay
Chain of Muscarinic acetylcholine receptor M3 (Homo sapiens, UniProt P20309) (P20309 whole entry): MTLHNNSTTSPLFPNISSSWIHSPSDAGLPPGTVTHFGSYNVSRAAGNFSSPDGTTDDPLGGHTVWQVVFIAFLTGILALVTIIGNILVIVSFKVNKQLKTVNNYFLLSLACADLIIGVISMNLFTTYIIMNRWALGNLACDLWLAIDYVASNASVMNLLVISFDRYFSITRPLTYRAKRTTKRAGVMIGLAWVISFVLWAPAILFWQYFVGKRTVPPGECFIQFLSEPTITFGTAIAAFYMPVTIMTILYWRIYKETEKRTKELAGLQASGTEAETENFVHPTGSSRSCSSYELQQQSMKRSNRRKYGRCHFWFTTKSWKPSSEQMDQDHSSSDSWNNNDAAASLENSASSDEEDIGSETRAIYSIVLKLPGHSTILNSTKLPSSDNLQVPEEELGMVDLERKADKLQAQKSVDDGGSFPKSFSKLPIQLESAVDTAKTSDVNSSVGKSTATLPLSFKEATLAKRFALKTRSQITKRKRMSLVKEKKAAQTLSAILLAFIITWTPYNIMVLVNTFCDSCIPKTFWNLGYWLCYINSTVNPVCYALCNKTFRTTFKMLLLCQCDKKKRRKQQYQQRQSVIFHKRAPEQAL

Measured: IC50

O=C(c1ccc(F)c(F)c1)N1CCN2C(=O)c3ccccc3C12c1ccccc1 (centres undefined)
> 30 µM: [1] | [2] | [3] | [4] | [5] | [6] | [7]

O=C(c1ccc(F)c(F)c1)N1CCN2C(=O)c3ccccc3[C@@]12c1ccc(Cl)cc1
> 30 µM: [1] | [2] | [3] | [4] | [5] | [6] | [7]
